Reference: patent US9777045B2, “Immunogenic compositions and methods” (Longhorn Vaccines and Diagnostics, LLC, priority 2007, dated 2017)
Values joined by “and” are separate entries in the source; they are usually repeats but may differ in a detail not shown here. Equal values may be shown once.

Legend:
[1] = system: IL-4 induction in splenocytes; type: cell-based; conditions: mice immunized with peptide-BSA conjugates; 72 h in vitro treatment
[2] = system: live Wuhan (Influenza A/Wuhan/359/95, H3N2); assay: ELISA for anti-Wuhan antibodies (mouse sera 1:100); type: in vivo, mice; conditions: sera 1:100; for Absorbance values for individual sera tested on influenzavirus strain Wuhan, Pre: mice, pre-bleed; for Anti-Wuhan Absorbance Day 42 (group average) / Anti-Wuhan Absorbance Pre-Bleed (group average): averaged results
[3] = system: Influenza H1N1, H3N2, and H5N1; conditions: in vivo
[4] = system: peptide corresponding to the peptide-BSA conjugate used for injection; assay: ELISA for anti-peptide antibodies (individual mouse sera 1:100); type: in vivo, mice; conditions: for Average Absorbance Values of sera for tested peptides, Day 14 / Average Absorbance Values of sera for tested peptides, Day 29 / Average Absorbance Values of sera for tested peptides, Day 42 / Average Absorbance Values of sera for tested peptides, Pre: group average; for Average Absorbance Values of sera for tested peptides, Day 14 / Average Absorbance Values of sera for tested peptides, Day 29 / Average Absorbance Values of sera for tested peptides, Day 42 / Average Absorbance Values of sera for tested peptides, Pre / Individual absorbancy values of sera for tested peptides, Day 14 / Individual absorbancy values of sera for tested peptides, Day 29 / Individual absorbancy values of sera for tested peptides, Day 42: mice; for Average Absorbance Values of sera for tested peptides, Pre / Individual absorbancy values of sera for tested peptides, Pre: pre-bleed; for Individual absorbancy values of sera for tested peptides, Pre: mice injected with peptide-BSA conjugate, absorbance 450 nm; for Individual absorbancy values of sera for tested peptides, Pre / Individual absorbancy values of sera for tested peptides, Day 14 / Individual absorbancy values of sera for tested peptides, Day 29 / Individual absorbancy values of sera for tested peptides, Day 42: sera 1:100
Description: Individual sera were tested at a final dilution of 1:100 (in PBS-T) on Nunc Maxisorp® plates coated with the peptide corresponding to the peptide-BSA conjugate used for injection, at a concentration of 1 μg/ml in PBS (100 μl/well). One hundred microliters of diluted sera were reacted on the coated plate for 30 to 60 min at room temperature, and unbound material was removed by washing three times with PBS-T. Anti-peptide antibodies were detected with peroxidase-labeled goat anti-mouse IgG (γ-specific), diluted 1:10000 in PBS-T (100 μl/well; Jackson ImmunoResearch Laboratories, Inc., West Grove, Pa., USA). Following 30-min incubation, the wells were washed five times with PBS-T to removed unbound material and 100 μl of substrate (TMB; Kirkegaard & Perry Laboratories, Inc., Gaithersburg, Md., USA) was added to each well. The reaction was allowed to proceed for 15 min in the dark and stopped by addition of 100 μl of TMB Stop Solution per well (Kirkegaard & Perry). Absorbance was determined at 450 nm.

[5] = system: IFN-γ induction in splenocytes; type: cell-based; conditions: mice immunized with peptide-BSA conjugates; 72 h in vitro treatment
live H3N2 virus = type: in vivo, cotton rats (Sigmodon hispidus); conditions: rat, in vivo
live H1N1 virus = system: live H1N1 virus; set-up: species or system cotton rats (Sigmodon hispidus); conditions: rat, in vivo
Influenza H3N2 (Wuhan) = system: Influenza H3N2 (Wuhan); set-up: species or system cotton rats (Sigmodon hispidus); conditions: rat, in vivo
[6] = 5 μg per injection, listed as 1911

Sequence: GNLFIAPGNLFIAPQYIKANSKFIGITEGNLFIAP [Peptide 5907]
- IL-4 response of spleen cell supernatants (in words) [1]: below the result of the untreated control
- Absorbance values for individual sera tested on influenzavirus strain Wuhan, Pre ([2]; 5 μg per injection): 0.084 and 0.062 and 0.068 and 0.063
- Absorbance values for individual sera tested on influenzavirus strain Wuhan, Pre ([2]; 20 μg per injection): 0.097 and 0.102 and 0.071 and 0.091
- Anti-Wuhan Absorbance Day 42 (individual mice) ([2]; dose per inject 5 μg): 0.212 and 0.082 and 0.250 and 0.039
- Anti-Wuhan Absorbance Pre-Bleed (individual mice) ([2]; dose per inject 5 μg): 0.084 and 0.062 and 0.068 and 0.063
- Anti-Wuhan Absorbance Day 42 (individual mice) ([2]; dose per inject 20 μg): 0.394 and 0.174 and 0.119 and 0.224
- Anti-Wuhan Absorbance Pre-Bleed (individual mice) ([2]; dose per inject 20 μg): 0.087 and 0.102 and 0.071 and 0.091
- Anti-Wuhan Absorbance Day 42 (group average) ([2]; dose per injection 5 μg): 0.146
- Anti-Wuhan Absorbance Pre-Bleed (group average) ([2]; dose per injection 5 μg): 0.069
- Anti-Wuhan Absorbance Day 42 (group average) ([2]; dose per injection 20 μg): 0.227
- Anti-Wuhan Absorbance Pre-Bleed (group average) ([2]; dose per injection 20 μg): 0.088
- immune response against Influenza H1N1, H3N2, and H5N1 [3]: raises an immune response
- Average Absorbance Values of sera for tested peptides, Day 14 ([4]; 5 μg per injection): 0.077
- Average Absorbance Values of sera for tested peptides, Day 29 ([4]; 5 μg per injection): 0.107
- Average Absorbance Values of sera for tested peptides, Day 42 ([4]; 5 μg per injection): 0.134
- Average Absorbance Values of sera for tested peptides, Pre ([4]; 5 μg per injection): 0.078
- Average Absorbance Values of sera for tested peptides, Day 14 ([4]; 20 μg per injection): 0.080
- Average Absorbance Values of sera for tested peptides, Day 29 ([4]; 20 μg per injection): 0.097
- Average Absorbance Values of sera for tested peptides, Day 42 ([4]; 20 μg per injection): 0.165
- Average Absorbance Values of sera for tested peptides, Pre ([4]; 20 μg per injection): 0.083
- Individual absorbancy values of sera for tested peptides, Pre ([4]; 5 μg per injection): 0.080 and 0.073 and 0.084 and 0.075
- Individual absorbancy values of sera for tested peptides, Pre ([4]; 20 μg per injection): 0.065 and 0.077 and 0.082 and 0.108
- Individual absorbancy values of sera for tested peptides, Day 14 ([4]; 5 μg per injection): 0.096 and 0.061 and 0.079 and 0.073
- Individual absorbancy values of sera for tested peptides, Day 29 ([4]; 5 μg per injection): 0.160 and 0.098 and 0.099 and 0.071
- Individual absorbancy values of sera for tested peptides, Day 42 ([4]; 5 μg per injection): 0.165 and 0.099 and 0.139
- Individual absorbancy values of sera for tested peptides, Day 14 ([4]; 20 μg per injection): 0.069 and 0.072 and 0.088 and 0.090
- Individual absorbancy values of sera for tested peptides, Day 29 ([4]; 20 μg per injection): 0.073 and 0.080 and 0.141 and 0.093
- Individual absorbancy values of sera for tested peptides, Day 42 ([4]; 20 μg per injection): 0.114 and 0.161 and 0.230 and 0.156

Sequence: HYEECSCY [Peptide 5911]
- Absorbance values for individual sera tested on influenzavirus strain Wuhan, Pre ([2]; 5 μg per injection): 0.060 and 0.073 and 0.063 and 0.067
- Absorbance values for individual sera tested on influenzavirus strain Wuhan, Pre ([2]; 20 μg per injection): 0.065 and 0.069 and 0.084 and 0.070
- Anti-Wuhan Absorbance Day 42 (individual mice) ([2]; dose per inject 5 μg): 0.154 and 0.174 and 0.136 and 0.165
- Anti-Wuhan Absorbance Pre-Bleed (individual mice) ([2]; dose per inject 5 μg): 0.067 and 0.060 and 0.073 and 0.063
- Anti-Wuhan Absorbance Day 42 (individual mice) ([2]; dose per inject 20 μg): 0.747 and 0.194 and 0.154 and 0.134
- Anti-Wuhan Absorbance Pre-Bleed (individual mice) ([2]; dose per inject 20 μg): 0.065 and 0.069 and 0.084 and 0.070
- Anti-Wuhan Absorbance Day 42 (group average) ([2]; dose per injection 5 μg): 0.157
- Anti-Wuhan Absorbance Pre-Bleed (group average) ([2]; dose per injection 5 μg): 0.065
- Anti-Wuhan Absorbance Day 42 (group average) ([2]; dose per injection 20 μg): 0.307
- Anti-Wuhan Absorbance Pre-Bleed (group average) ([2]; dose per injection 20 μg): 0.072
- Average Absorbance Values of sera for tested peptides, Day 14 ([4]; 5 μg per injection): 0.264
- Average Absorbance Values of sera for tested peptides, Day 29 ([4]; 5 μg per injection): 0.213
- Average Absorbance Values of sera for tested peptides, Day 42 ([4]; 5 μg per injection): 0.347
- Average Absorbance Values of sera for tested peptides, Pre ([4]; 5 μg per injection): 0.156
- Average Absorbance Values of sera for tested peptides, Day 14 ([4]; 20 μg per injection): 0.171
- Average Absorbance Values of sera for tested peptides, Day 29 ([4]; 20 μg per injection): 0.229
- Average Absorbance Values of sera for tested peptides, Day 42 ([4]; 20 μg per injection): 0.342
- Average Absorbance Values of sera for tested peptides, Pre ([4]; 20 μg per injection): 0.132
- Individual absorbancy values of sera for tested peptides, Pre ([4]; 5 μg per injection): 0.126 and 0.187 and 0.137
- Individual absorbancy values of sera for tested peptides, Pre [4, 6]: 0.174
- Individual absorbancy values of sera for tested peptides, Pre ([4]; 20 μg per injection): 0.099 and 0.109 and 0.151 and 0.121
- Individual absorbancy values of sera for tested peptides, Day 14 ([4]; 5 μg per injection): 0.184 and 0.503 and 0.154
- Individual absorbancy values of sera for tested peptides, Day 14 [4, 6]: 0.216
- Individual absorbancy values of sera for tested peptides, Day 29 ([4]; 5 μg per injection): 0.201 and 0.303 and 0.188
- Individual absorbancy values of sera for tested peptides, Day 29 [4, 6]: 0.161
- Individual absorbancy values of sera for tested peptides, Day 42 ([4]; 5 μg per injection): 0.392 and 0.497 and 0.300
- Individual absorbancy values of sera for tested peptides, Day 42 [4, 6]: 0.199
- Individual absorbancy values of sera for tested peptides, Day 14 ([4]; 20 μg per injection): 0.102 and 0.136 and 0.106 and 0.123
- Individual absorbancy values of sera for tested peptides, Day 29 ([4]; 20 μg per injection): 0.145 and 0.240 and 0.152 and 0.170
- Individual absorbancy values of sera for tested peptides, Day 42 ([4]; 20 μg per injection): 0.180 and 0.304 and 0.218 and 0.158
- IFN-γ response of spleen cell supernatants (in words) [5]: Weaker responses

Sequence: SLLTEVETPIRNEWGLLTEVETPIRQYIKANSKFIGITE [PF2001]
- IgG titers to live H3N2 virus (ELISA) (live H3N2 virus): superior to two injections of M2e
- IgG to live H3N2 virus after peptide boost of primed animals (ELISA) (live H3N2 virus): equivalent titer to group 6
- IgG antibody against live H1N1 virus (ELISA) (live H1N1 virus): IgG antibody rises were also induced
- viral inhibitory antibody to H3N2 after peptide boost (Influenza H3N2 (Wuhan)): boosted viral inhibitory antibody to H3N2
